Measured values published in US6620808B2, “Endocrine modulation with positive modulators of AMPA type glutamate receptors” (The Regents of the University of California, priority 1997, dated 2003).

Test system: Sections of the hypothalamus containing the arcuate nucleus
Assay: release of GHRH from hypothalamic explants in static culture
Format: cell-based, rats
Conditions: GR87 at 100 μm
From the text: The arcuate nucleus of the hypothalamus contains the majority of cells that synthesize GHRH and secrete the releasing factor into the anterior pituitary. Sections of the hypothalamus containing the arcuate nucleus were explanted from postnatal day 10-12 rats and maintained in static culture. Once established, these cultures were used to test the prediction that positive, allosteric modulators of AMPA type glutamate receptors will increase the release of GHRH from the hypothalamus into the culture medium. Explants were exposed to GR87 at 100 μm for four hours on some days and to vehicle for the same period on other days. Concentrates of the media were prepared following the exposure periods of GHRH assayed using a commercially available kit. Using a within culture design, i.e. drug vs. vehicle in the same tissue well, provided a control for differences in tissue thickness and the extent to which the arcuate was contained within the explants. As shown, the amount of GHRH in the media was about threefold greater after four hours of treatment with ampakine than it was after an equivalent period of vehicle application. This effect was in the predicted direction and was statistically significant (p=0.011).
A single experiment was conducted to test if prolonged administration of GR87 at 100 μm would affect GHRH secretion. […]

## O=C(c1ccc2c(c1)OCCO2)N1CCCCC1 [GR87]
24 hours, group of 12 explants (controls 18 ng/400 μl)
  media level of GHRH: 47 ng/400 μl
Four hours, within-culture drug vs vehicle, p=0.011
  amount of GHRH in the media relative to vehicle application: about threefold
